Molecular target: FGFR2 (Homo sapiens, UniProt P21802)
Experiment: FGFR wild type enzyme assay (HTRF KinEASE-TK), FGFR2
Settings: Enz FGFR2 (nM), FGFR2 wild type enzyme assay

Sequence of FGFR2 (P21802 399-821 limits assumed): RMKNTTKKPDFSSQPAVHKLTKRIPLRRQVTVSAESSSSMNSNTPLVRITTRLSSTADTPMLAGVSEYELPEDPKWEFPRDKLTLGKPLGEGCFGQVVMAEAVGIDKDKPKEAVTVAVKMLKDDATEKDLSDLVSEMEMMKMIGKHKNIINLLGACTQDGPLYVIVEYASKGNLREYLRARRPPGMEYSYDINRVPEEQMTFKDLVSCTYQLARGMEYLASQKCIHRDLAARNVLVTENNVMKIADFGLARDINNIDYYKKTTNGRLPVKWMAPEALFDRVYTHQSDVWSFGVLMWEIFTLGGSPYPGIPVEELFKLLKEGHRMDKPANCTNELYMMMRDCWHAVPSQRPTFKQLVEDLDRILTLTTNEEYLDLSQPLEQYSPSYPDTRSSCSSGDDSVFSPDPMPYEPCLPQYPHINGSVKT

| SMILES | IC50 [nM] |
| --- | --- |
| Cc1c(-c2cc(Sc3cc(Cl)ccc3C#N)c3c(C#N)cnn3c2)cnn1C1CCN(C)CC1 [Example 358, 4-((5-chloro-2-cyanophenyl)thio)-6-(5-methyl-1-(1-methylpiperidin-4-yl)-1H-pyrazol-4-yl)pyrazolo[1,5-a]pyridine-3-carbonitrile] | 2 |
| Cc1c(-c2cc(Sc3cc(F)ccc3C#N)c3c(C#N)cnn3c2)cnn1C1CCN(C)CC1 [Example 359, 4-((2-cyano-5-fluorophenyl)thio)-6-(5-methyl-1-(1-methylpiperidin-4-yl)-1H-pyrazol-4-yl)pyrazolo[1,5-a]pyridine-3-carbonitrile] | 1.5 |
| Cc1c(-c2cc(Sc3ccc(F)cc3C#N)c3c(C#N)cnn3c2)cnn1C1CCN(C(=O)[C@H](C)O)CC1 [Example 360, (S)-4-((2-cyano-4-fluorophenyl)thio)-6-(1-(1-(2-hydroxypropanoyl)piperidin-4-yl)-5-methyl-1H-pyrazol-4-yl)pyrazolo[1,5-a]pyridine-3-carbonitrile] | 2 |
| COC(=O)N1CCC(n2ncc(-c3cc(Sc4ccc(F)cc4C#N)c4c(C#N)cnn4c3)c2C)CC1 [Example 361, methyl 4-(4-(3-cyano-4-((2-cyano-4-fluorophenyl)thio)pyrazolo [1,5-a]pyridin-6-yl)-5-methyl-1H-pyrazol-1-yl)piperidine-1-carboxylate] | 2 |
| COC(=O)N[C@H]1CC[C@@H](n2ncc(-c3cc(Sc4ccc(F)cc4C#N)c4c(C#N)cnn4c3)c2C)CC1 [Example 362, methyl ((1s,4s)-4-(4-(3-cyano-4-((2-cyano-4-fluorophenyl)thio)pyrazolo [1,5-a]pyridin-6-yl)-5-methyl-1H-pyrazol-1-yl)cyclohexyl)carbamate] | 1 |
| COC(=O)N1CCC[C@H](n2ncc(-c3cc(Sc4ccc(F)cc4C#N)c4c(C#N)cnn4c3)c2C)C1 [Example 363, methyl (S)-3-(4-(3-cyano-4-((2-cyano-4-fluorophenyl)thio)pyrazolo [1,5-a]pyridin-6-yl)-5-methyl-1H-pyrazol-1-yl)piperidine-1-carboxylate] | 2 |
| COC(=O)N[C@]1(C)CC[C@H](n2ncc(-c3cc(Sc4ccc(F)cc4C#N)c4c(C#N)cnn4c3)c2C)CC1 [Example 364, methyl ((1s,4s)-4-(4-(3-cyano-4-((2-cyano-4-fluorophenyl)thio)pyrazolo [1,5-a]pyridin-6-yl)-5-methyl-1H-pyrazol-1-yl)-1-methylcyclohexyl)carba-mate] | 3 |
| COC(=O)N1[C@@H]2CC[C@H]1C[C@H](n1ncc(-c3cc(Sc4ccc(F)cc4C#N)c4c(C#N)cnn4c3)c1C)C2 [Example 365, methyl (1R,3s,5S)-3-(4-(3-cyano-4-((2-cyano-4-fluorophenyl)thio)pyrazolo [1,5-a]pyridin-6-yl)-5-methyl-1H-pyrazol-1-yl)-8-azabicyclo[3.2.1]octane-8-carboxylate] | 2 |
| Cc1c(-c2cc(Sc3ccc(F)cc3C#N)c3c(C#N)cnn3c2)cnn1[C@@H]1C[C@H]2CC[C@@H](C1)N2 [Example 366, 6-(1-((1R,3s,5S)-8-azabicyclo[3.2.1]octan-3-yl)-5-methyl-1H-pyrazol-4-yl)-4-((2-cyano-4-fluorophenyl)thio)pyrazolo [1,5-a]pyridine-3-carbonitrile] | 0.6 |
| N#Cc1ccccc1Sc1cc(-c2cnn(C3CCS(=O)(=O)CC3)c2)cn2ncc(C#N)c12 [Example 367, 4-((2-cyanophenyl)thio)-6-(1-(1,1-dioxidotetrahydro-2H-thiopyran-4-yl)-1H-pyrazol-4-yl)pyrazolo[1,5-a]pyridine-3-carbonitrile] | 0.4 |
| CC(=O)N[C@@H]1CC[C@@H](n2cc(-c3cc(Sc4ccccc4C#N)c4c(C#N)cnn4c3)cn2)C1 [Example 368, N-((1R,3R)-3-(4-(3-cyano-4-((2-cyanophenyl)thio)pyrazolo [1,5-a]pyridin-6-yl)-1H-pyrazol-1-yl)cyclopentyl)acetamide] | 0.4 |
| Cc1c(-c2cc(Sc3ccc(Cl)cc3C#N)c3c(C#N)cnn3c2)cnn1C1CCN(C)CC1 [Example 369, 4-((4-chloro-2-cyanophenyl)thio)-6-(5-methyl-1-(1-methylpiperidin-4-yl)-1H-pyrazol-4-yl)pyrazolo[1,5-a]pyridine-3-carbonitrile] | 5 |
| CN1CCC(n2ncc(-c3cc(Sc4ncccc4F)c4c(C#N)cnn4c3)c2C#N)CC1 [Example 370, 6-(5-cyano-1-(1-methylpiperidin-4-yl)-1H-pyrazol-4-yl)-4-((3-fluoropyridin-2-yl)thio)pyrazolo[1,5-a]pyridine-3-carbonitrile] | 35 |
| Cc1cc(Sc2cc(-c3cnn(C4CCN(C)CC4)c3C)cn3ncc(C#N)c23)c(C#N)cc1F [Example 371, 4-((2-cyano-4-fluoro-5-methylphenyl)thio)-6-(5-methyl-1-(1-methylpiperidin-4-yl)-1H-pyrazol-4-yl)pyrazolo[1,5-a]pyridine-3-carbonitrile] | 5 |
| Cc1c(-c2cc(Sc3ccc(F)cc3C#N)c3c(C#N)cnn3c2)cnn1[C@@H]1C[C@H]2CC[C@@H](C1)N2C(=O)CO [Example 372, 4-((2-cyano-4-fluorophenyl)thio)-6-(1-((1R,3s,5S)-8-(2-hydroxyacetyl)-8-azabicyclo[3.2.1]octan-3-yl)-5-methyl-1H-pyrazol-4-yl)pyrazolo[1,5-a]pyridine-3-carbonitrile] | 1 |
| CC(=O)N1[C@@H]2CC[C@H]1C[C@H](n1ncc(-c3cc(Sc4ccc(F)cc4C#N)c4c(C#N)cnn4c3)c1C)C2 [Example 373, 6-(1-((1R,3s,5S)-8-acetyl-8-azabicyclo[3.2.1]octan-3-yl)-5-methyl-1H-pyrazol-4-yl)-4-((2-cyano-4-fluorophenyl)thio)pyrazolo [1,5-a]pyridine-3-carbonitrile] | 2 |
| Cc1noc(Cn2cc(-c3cc(Sc4ccccc4C#N)c4c(C#N)cnn4c3)cn2)n1 [Example 374, 4-((2-cyanophenyl)thio)-6-(1-((3-methyl-1,2,4-oxadiazol-5-yl)methyl)-1H-pyrazol-4-yl)pyrazolo[1,5-a]pyridine-3-carbonitrile] | 1 |
| Cn1ccc(Cn2cc(-c3cc(Sc4ccccc4C#N)c4c(C#N)cnn4c3)cn2)n1 [Example 375, 4-((2-cyanophenyl)thio)-6-(1-((1-methyl-1H-pyrazol-3-yl)methyl)-1H-pyrazol-4-yl)pyrazolo[1,5-a]pyridine-3-carbonitrile] | 0.6 |
| Cc1c(-c2cc(Sc3ncc(Cl)cc3F)c3c(C#N)cnn3c2)cnn1C1CCN(C)CC1 [Example 376, 4-((5-chloro-3-fluoropyridin-2-yl)thio)-6-(5-methyl-1-(1-methylpiperidin-4-yl)-1H-pyrazol-4-yl)pyrazolo[1,5-a]pryidine-3-carbonitrile] | 5.5 |
| Cc1cnc(Sc2cc(-c3cnn(C4CCN(C)CC4)c3C)cn3ncc(C#N)c23)c(F)c1 [Example 377, 4-((3-fluoro-5-methylpyridin-2-yl)thio)-6-(5-methyl-1-(1-methylpiperidin-4-yl)-1H-pyrazol-4-yl)pyrazolo[1,5-a]pyridine-3-carbonitrile] | 11 |
| Cc1ccc(Sc2cc(-c3cnn(C4CCN(C)CC4)c3C)cn3ncc(C#N)c23)c(C#N)c1 [Example 378, 4-((2-cyano-4-methylphenyl)thio)-6-(5-methyl-1-(1-methylpiperidin-4-yl)-1H-pyrazol-4-yl)pyrazolo[1,5-a]pyridine-3-carbonitrile] | 4 |
| COc1ccc(Sc2cc(-c3cnn(C4CCN(C)CC4)c3C)cn3ncc(C#N)c23)c(C#N)c1 [Example 379, 4-((2-cyano-4-methoxyphenyl)thio)-6-(5-methyl-1-(1-methylpiperidin-4-yl)-1H-pyrazol-4-yl)pyrazolo[1,5-a]pyridine-3-carbonitrile] | 25 |
| Cc1c(-c2cc(Sc3ccc(F)cc3C#N)c3c(C#N)cnn3c2)cnn1C1CCN([C@@H](C)CO)CC1 [Example 380, (S)-4-((2-cyano-4-fluorophenyl)thio)-6-(1-(1-(1-hydroxypropan-2-yl)piperidin-4-yl)-5-methyl-1H-pyrazol-4-yl)pyrazolo[1,5-a]pyridine-3-carbonitrile] | 1 |
| Cc1c(-c2cc(Sc3ccc(F)cc3C#N)c3c(C#N)cnn3c2)cnn1C1CCN([C@H](C)CO)CC1 [Example 381, (R)-4-((2-cyano-4-fluorophenyl)thio)-6-(1-(1-(1-hydroxypropan-2-yl)piperidin-4-yl)-5-methyl-1H-pyrazol-4-yl)pyrazolo[1,5-a]pyridine-3-carbonitrile] | 1 |
| CC(=O)N1CCC(n2ncc(-c3cc(Sc4nccc(C)c4F)c4c(C#N)cnn4c3)c2C)CC1 [Example 382, 6-(1-(1-acetylpiperidin-4-yl)-5-methyl-1H-pyrazol-4-yl)-4-((3-fluoro-4-methylpyridin-2-yl)thio)pyrazolo[1,5-a]pyridine-3-carbonitrile] | 14 |
| CC(=O)N[C@H]1CC[C@@H](n2ncc(-c3cc(Sc4nc(N)ccc4F)c4c(C#N)cnn4c3)c2C)CC1 [Example 383, N-((1s,4s)-4-(4-(4-((6-amino-3-fluoropyridin-2-yl)thio)-3-cyanopyrazolo[1,5-a]pyridin-6-yl)-5-methyl-1H-pyrazol-1-yl)cyclohexyl)acetamide] | 1 |
| CC(=O)N[C@H]1CC[C@@H](n2ncc(-c3cc(Sc4nc(F)ccc4F)c4c(C#N)cnn4c3)c2C)CC1 [Example 384, N-((1s,4s)-4-(4-(3-cyano-4-((3,6-difluoropyridin-2-y)thio)pyrazolo[1,5-a]pyridin-6-yl)-5-methyl-1H-pyrazol-1-yl)cyclohexyl)acetamide] | 1 |
| Cc1c(-c2cc(Sc3cccc(Cl)c3C#N)c3c(C#N)cnn3c2)cnn1C1CCN(C)CC1 [Example 385, 4-((3-chloro-2-cyanophenyl)thio)-6-(5-methyl-1-(1-methylpiperidin-4-yl)-1H-pyrazol-4-yl)pyrazolo[1,5-a]pyridine-3-carbonitrile] | 1.5 |
| COc1cc(Sc2cc(-c3cnn(C4CCN(C)CC4)c3C)cn3ncc(C#N)c23)c(C#N)cc1F [Example 386, 4-((2-cyano-4-fluoro-5-methoxyphenyl)thio)-6-(5-methyl-1-(1-methylpiperidin-4-yl)-1H-pyrazol-4-yl)pyrazolo[1,5-a]pyridine-3-carbonitrile] | 5 |

Source: patent US20240270741A1 (Cogent Biosciences, Inc., priority 2023, published 2024)
